Holding throughout (experiment): MIC of purified bacteriocins and antibiotic by Spot Test
Holding throughout (type): cell-based

Assay [1] deals with Staphylococcus epidermidis. The following applies: S. epidermidis; 24 hours at 37° C., aerobic. The protocol:
(§1) The minimal inhibiting concentrations (MICs) of bacteriocins 760 and 50-52 and Methicillin were determined by Spot Test. Various concentrations of purified bacteriocins (μg/ml) in a volume of 10 μl was added to cultures of Staphylococcus aureus, Staphylococcus epidermidis, Pseudomonas aeruginosa, and Helicobacter pylori. The cultures were incubated for about 24 hours at about 37° C. under aerobic conditions for all but Helicobacter pylori which was incubated under microaerobic conditions.

The next assay has as its system Helicobacter pylori. The note with it: H. pylori; 24 hours at 37° C., microaerobic. The protocol:
as §1

A further assay has as its system Pseudomonas aeruginosa. The note with it: P. aeruginosa; 24 hours at 37° C., aerobic. How it is done:
as §1

A further assay concerns Staphylococcus aureus. The following applies: S. aureus; 24 hours at 37° C., aerobic. The protocol: as §1

For `COc1cccc(OC)c1C(=O)N[C@@H]1C(=O)N2[C@@H]1SC(C)(C)[C@@H]2C(=O)O` [Methicillin, reference compound], the “MIC of purified Bacteriocins and Antibiotic” value in assay [1] is 64.8 µg/mL; with Helicobacter pylori it was 93.8 µg/mL; in the assay with Pseudomonas aeruginosa, 78.4 µg/mL; in the assay with Staphylococcus aureus, 52.5 µg/mL.

The record behind these values is patent publication US7988958B2, “Enterococcus and Streptococcus strains and bacteriocins” (The United States of America as represented by the …, priority 2005, dated 2011).
